What was measured:
cells [1] = assay type: functional; conditions: Homo sapiens, PC-3, 72 h
Description: Growth inhibition of human PC3 cells after 72 hrs by CellTiter Glo assay

cells [2] = assay type: functional; conditions: Homo sapiens, HL-60, 72 h
Description: Growth inhibition of human HL60 cells after 72 hrs by CellTiter Glo assay

cells [3] = assay type: functional; conditions: Homo sapiens, HCT-116, 72 h
Description: Growth inhibition of human HCT116 cells after 72 hrs by CellTiter Glo assay

Histone deacetylase 1 = Histone deacetylase 1 (Homo sapiens, UniProt Q13547); assay: Inhibition of HDAC1 (unknown origin) using Boc-Lys(Ac)-AMC as substrate by fluorescence assay
[4] = Antitumor activity against human HCT116 cells xenografted in mouse assessed as tumor growth reduction at 75 mg/kg, po qd as intermittent dosing schedule with 3 days on plus 3 days off for 3 weeks relative to vehicle-treated control; assay type: functional; conditions: HCT-116, read-out: TGI
Mus musculus [5] = assay: Toxicity in human HCT116 cells xenografted mouse assessed as body weight loss at 50 mg/kg, po qd for 3 weeks relative to vehicle-treated control; assay type: organism-based, HCT-116; set-up: dose 50 mg/kg, route oral; conditions: in vivo, 504 h
Mus musculus [6] = assay: Toxicity in human HCT116 cells xenografted mouse assessed as body weight loss at 50 mg/kg, po qd as intermittent dosing schedule with 3 days on plus 3 days off for 3 weeks relative to vehicle-treated control; assay type: organism-based, HCT-116; set-up: dose 50 mg/kg, route oral; conditions: in vivo
Mus musculus [7] = assay: Toxicity in human HCT116 cells xenografted mouse at 200 mg/kg, po qd measured after 10 days relative to vehicle-treated control; assay type: organism-based, HCT-116; set-up: dose 200 mg/kg, route oral; conditions: in vivo, 240 h
[8] = Antitumor activity against human HCT116 cells xenografted in mouse assessed as tumor growth reduction at 200 mg/kg, po qd measured after 10 days relative to vehicle-treated control; assay type: functional; conditions: HCT-116, 240 h, read-out: TGI
HCT-116 = assay: Ratio of vorinostat IC50 to compound IC50 for human HCT116 cells after 72 hrs by CellTiter Glo assay; assay type: functional
hERG (KCNH2) = hERG (KCNH2) (Homo sapiens, UniProt Q12809); assay: Inhibition of human ERG at 10 uM
Chain of hERG (KCNH2) (Q12809 whole entry): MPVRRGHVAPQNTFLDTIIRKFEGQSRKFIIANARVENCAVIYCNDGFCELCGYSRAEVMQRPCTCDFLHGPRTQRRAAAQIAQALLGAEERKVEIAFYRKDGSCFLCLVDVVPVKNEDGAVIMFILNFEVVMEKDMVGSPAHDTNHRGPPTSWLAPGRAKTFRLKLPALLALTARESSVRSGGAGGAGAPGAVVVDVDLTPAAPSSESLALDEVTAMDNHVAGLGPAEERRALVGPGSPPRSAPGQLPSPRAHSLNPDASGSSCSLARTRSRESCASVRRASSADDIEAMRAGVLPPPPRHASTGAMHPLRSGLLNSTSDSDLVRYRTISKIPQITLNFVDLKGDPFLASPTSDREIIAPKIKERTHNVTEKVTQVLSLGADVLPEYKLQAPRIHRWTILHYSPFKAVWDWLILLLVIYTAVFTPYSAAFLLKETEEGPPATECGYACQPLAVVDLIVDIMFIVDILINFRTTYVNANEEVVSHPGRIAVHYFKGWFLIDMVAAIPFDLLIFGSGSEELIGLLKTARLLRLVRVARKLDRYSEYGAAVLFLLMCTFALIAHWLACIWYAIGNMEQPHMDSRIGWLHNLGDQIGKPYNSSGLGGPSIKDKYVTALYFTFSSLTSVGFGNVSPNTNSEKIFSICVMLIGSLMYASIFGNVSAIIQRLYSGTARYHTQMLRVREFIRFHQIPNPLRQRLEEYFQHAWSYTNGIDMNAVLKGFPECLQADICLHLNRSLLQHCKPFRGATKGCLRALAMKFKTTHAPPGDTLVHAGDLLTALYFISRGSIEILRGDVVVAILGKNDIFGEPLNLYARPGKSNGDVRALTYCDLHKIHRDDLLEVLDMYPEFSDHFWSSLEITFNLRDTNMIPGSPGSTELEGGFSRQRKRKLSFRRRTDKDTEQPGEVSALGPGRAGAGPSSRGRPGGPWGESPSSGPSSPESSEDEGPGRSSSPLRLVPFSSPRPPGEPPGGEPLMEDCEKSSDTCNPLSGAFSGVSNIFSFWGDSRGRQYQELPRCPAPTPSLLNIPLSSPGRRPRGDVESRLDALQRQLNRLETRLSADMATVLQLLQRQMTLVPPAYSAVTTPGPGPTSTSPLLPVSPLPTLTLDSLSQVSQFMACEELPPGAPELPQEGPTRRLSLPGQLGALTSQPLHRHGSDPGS

[9] = Antitumor activity against human HCT116 cells xenografted in mouse assessed as tumor growth reduction at 50 mg/kg, po qd for 3 weeks relative to vehicle-treated control; assay type: functional; conditions: HCT-116, 504 h, read-out: TGI

Chain of Histone deacetylase 1 (Q13547 whole entry): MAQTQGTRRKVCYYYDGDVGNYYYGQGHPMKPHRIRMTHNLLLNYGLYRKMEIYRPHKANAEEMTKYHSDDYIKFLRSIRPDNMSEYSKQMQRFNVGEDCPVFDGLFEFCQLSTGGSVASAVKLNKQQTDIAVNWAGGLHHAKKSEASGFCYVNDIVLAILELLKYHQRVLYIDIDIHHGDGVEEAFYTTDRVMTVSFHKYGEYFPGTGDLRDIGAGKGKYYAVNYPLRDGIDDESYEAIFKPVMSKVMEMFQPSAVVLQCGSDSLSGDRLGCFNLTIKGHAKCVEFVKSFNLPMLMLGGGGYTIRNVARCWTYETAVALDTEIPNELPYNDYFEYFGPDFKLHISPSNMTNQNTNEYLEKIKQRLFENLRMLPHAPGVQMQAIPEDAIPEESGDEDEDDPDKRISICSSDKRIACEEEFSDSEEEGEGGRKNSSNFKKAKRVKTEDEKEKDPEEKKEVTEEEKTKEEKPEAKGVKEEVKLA

| Structure (SMILES) | IC50 (Histone deacetylase 1) | GI50 (cells [3]) | further results |
| --- | --- | --- | --- |
| O=C(NO)c1ccc(N2CCN(Cc3cccnc3)C2=O)cc1 | 42 nM |  |  |
| CN(C)Cc1cccc(CN2CCN(c3ccc(C(=O)NO)cc3)C2=O)c1 | 23 nM |  |  |
| O=C(NO)c1ccc(N2CCN(Cc3ccc(F)cc3)C2=O)cc1 | 21 nM |  |  |
| O=C(NO)c1ccc(N2CCN(CCCN3CCCC3)C2=O)cc1 | 114 nM |  |  |
| O=C(NO)c1ccc(N2CCN(c3cccnc3)C2=O)cc1 | 182 nM |  |  |
| CC(C)CN1CCN(c2ccc(C(=O)NO)cc2)C1=O | 250 nM |  |  |
| O=C(NO)c1ccc(N2CCN(Cc3ccc(C(F)(F)F)cc3)C2=O)cc1 | 80 nM |  |  |
| CN(C)Cc1ccc(CN2CCN(c3ccc(C(=O)NO)cc3)C2=O)cc1 | 25 nM |  |  |
| O=C(NO)c1ccc(N2CCN(c3cnc4ccccc4c3)C2=O)cc1 | 152 nM |  |  |
| O=C(NO)c1ccc(N2CCN(CCCN3CCOCC3)C2=O)cc1 | 125 nM |  |  |
| O=C(NO)c1ccc(N2CCN(Cc3ccncc3)C2=O)cc1 | 41 nM |  |  |

Now those with a lower IC50 (Histone deacetylase 1), led by results:

| IC50 (Histone deacetylase 1) | Structure (SMILES) | GI50 (cells [3]) | further results |
| --- | --- | --- | --- |
| 5.4 nM | O=C(NO)c1ccc(N2CCN(Cc3cccc4ncccc34)C2=O)cc1 | 270 nM | GI50 (cells [1]): 340 nM; GI50 (cells [2]): 250 nM |
| 9.5 nM | CN(C)c1cccc(CN2CCN(c3ccc(C(=O)NO)cc3)C2=O)c1 | 330 nM | GI50 (cells [1]): 430 nM; GI50 (cells [2]): 440 nM |
| 12 nM | COc1ccc(CN2CCN(c3ccc(C(=O)NO)cc3)C2=O)cc1 | 470 nM |  |
| 5.4 nM | O=C(NO)c1ccc(N2CCN(Cc3ccc4ccccc4c3)C2=O)cc1 | 210 nM | GI50 (cells [1]): 380 nM; GI50 (cells [2]): 360 nM |
| 4 nM | Cn1cc(CCN2CCN(c3ccc(C(=O)NO)cc3)C2=O)c2ccccc21 | 240 nM | GI50 (cells [1]): 210 nM; GI50 (cells [2]): 480 nM |
| 17 nM | O=C(NO)c1ccc(N2CCN(Cc3ccccc3)C2=O)cc1 | 850 nM |  |
| 13 nM | O=C(NO)c1ccc(N2CCN(CCc3ccccc3)C2=O)cc1 | 650 nM |  |
| 9.5 nM | O=C(NO)c1ccc(N2CCN(Cc3cccc4ccccc34)C2=O)cc1 |  |  |
| 2.7 nM | CCN(CC)Cc1ccc2cc(CN3CCN(c4ccc(C(=O)NO)cc4)C3=O)ccc2c1 | 110 nM | inhibition in vivo at 75 mg/kg [4]: 54%; Activity (Mus musculus [5]): < 15%; Activity (Mus musculus [6]): < 15%; GI50 (cells [1]): 100 nM; Activity (Mus musculus [7]): Toxic; GI50 (cells [2]): 86 nM; inhibition in vivo at 200 mg/kg [8]: 50%; Ratio IC50 (HCT-116): 6; inhibition at 10 µM (hERG (KCNH2)): 27%; inhibition in vivo at 50 mg/kg [9]: 45% |

From ChEMBL document CHEMBL3351615, “Design, synthesis and evaluation of novel HDAC inhibitors as potential antitumor agents” (Bioorg Med Chem Lett, 2014)
